From patent US8546440B2, “Substituted bicyclic imidazole derivatives as gamma secretase modulators” (Janssen Pharmaceuticals, Inc., priority 2008, dated 2013)

Assays:
[1] = system: Aβtotal; experiment: Screening for γ-secretase-modulating activity, Method 1: Aβtotal sandwich ELISA in supernatant of SKNBE2 cells carrying APP 695 wild type (Tables 12a, 12b); format: cell-based
Method: (§1) Screening was carried out using SKNBE2 cells carrying the APP 695—wild type, grown in Dulbecco's Modified Eagle's Medium/Nutrient mixture F-12 (DMEM/NUT-mix F-12) (HAM) provided by Gibco (cat no. 31330-38) containing 5% Serum/Fe supplemented with 1% non-essential amino acids. Cells were grown to near confluency.
(§2) The screening was performed using the assay as described in Citron et al (1997) Nature Medicine 3: 67. Briefly, cells were plated in a 96-well plate at about 10^5 cells/ml one day prior to addition of compounds. Compounds were added to the cells in Ultraculture (Lonza, BE12-725F) supplemented with 1% glutamine (Invitrogen, 25030-024) for 18 hours. The media were assayed by two sandwich ELISAs, for Aβ42 and Aβtotal. Toxicity of the compounds was assayed by WST-1 cell proliferation reagent (Roche, 1 644 807) according to the manufacturer's protocol.
To quantify the amount of Aβtotal in the cell supernatant, samples and standards were added to a 6E10-coated plate. The plate was allowed to incubate overnight at 4° C. in order to allow formation of the antibody-amyloid complex. Following this incubation and subsequent wash steps a selective anti-Aβ-antibody conjugate (biotinylated 4G8) was added and incubated for a minimum of 1 hour in order to allow formation of the antibody-Amyloid-antibody-complex. After incubation and appropriate wash steps, a Streptavidine-Peroxidase-Conjugate was added, followed 30 minutes later by an addition of Quanta Blu fluorogenic peroxidase substrate according to the manufacturer's instructions (Pierce Corp., Rockford, Ill.).
(§3) To obtain the values reported in Table 12a, the sigmoidal dose response curves were analysed by computerised curve-fitting, with percent of inhibition plotted against compound concentration. A 4-parameter equation (model 205) in XLfit was used to determine the IC50. The top and the bottom of the curve were fixed to 100 and 0, respectively, and the hill slope was fixed to 1. The IC50 represents the concentration of a compound that is required for inhibiting a biological effect by 50% (Here, it is the concentration where Aβ peptide level is reduced by 50%).
(§4) To obtain the values reported in Table 12b, the data are calculated as percentage of the maximum amount of amyloid Beta 42 measured in the absence of the test compound. The sigmoidal dose response curves were analyzed using non-linear regression analysis with percentage of the control plotted against the log concentration of the compound. A 4-parameter equation was used to determine the IC50. The values reported in Table 12b are averaged IC50 values.

[2] = system: Aβ42; experiment: Screening for γ-secretase-modulating activity, Method 1: Aβ42 sandwich ELISA in supernatant of SKNBE2 cells carrying APP 695 wild type (Tables 12a, 12b); format: cell-based
Method: as §1, §2
To quantify the amount of Aβ42 in the cell supernatant, commercially available Enzyme-Linked-Immunosorbent-Assay (ELISA) kits were used (Innotest® β-Amyloid(1-42), Innogenetics N.V., Ghent, Belgium). The Aβ42 ELISA was performed essentially according to the manufacturer's protocol. Briefly, the standards (dilutions of synthetic Aβ1-42) were prepared in polypropylene Eppendorf with final concentrations of 8000 down to 3.9 pg/ml (1/2 dilution step). Samples, standards and blanks (100 μl) were added to the anti-Aβ42-coated plate supplied with the kit (the capture antibody selectively recognizes the C-terminal end of the antigen). The plate was allowed to incubate 3 h at 25° C. in order to allow formation of the antibody-amyloid complex. Following this incubation and subsequent wash steps a selective anti-Aβ-antibody conjugate (biotinylated 3D6) was added and incubated for a minimum of 1 hour in order to allow formation of the antibody-Amyloid-antibody-complex. After incubation and appropriate wash steps, a Streptavidine-Peroxidase-Conjugate was added, followed 30 minutes later by an addition of 3,3′,5,5′-tetramethylbenzidine (TMB)/peroxide mixture, resulting in the conversion of the substrate into a coloured product. This reaction was stopped by the addition of sulfuric acid (0.9 N) and the colour intensity was measured by means of photometry with an ELISA-reader with a 450 nm filter.
as §3, §4

[3] = Method 1, Table 12a, SKNBE2 cells carrying APP 695 wild type, compounds 18 hours, ELISA, curve top and bottom fixed to 100 and 0, hill slope 1
[4] = Table 12b, Method 1, SKNBE2 cells carrying APP 695 wild type, cell supernatant ELISA, averaged IC50 values
[5] = Table 12b, Method 1, SKNBE2 cells carrying APP 695 wild type, cell supernatant ELISA, averaged IC50 values, percentage of control vs log concentration
[6] = Homo sapiens, Method 1, Table 12a, SKNBE2 cells carrying APP 695 wild type, compounds 18 hours, ELISA, curve top and bottom fixed to 100 and 0, hill slope 1
[7] = Homo sapiens, Table 12b, Method 1, SKNBE2 cells carrying APP 695 wild type, cell supernatant ELISA, averaged IC50 values
[8] = Homo sapiens, Table 12b, Method 1, SKNBE2 cells carrying APP 695 wild type, cell supernatant ELISA, averaged IC50 values, percentage of control vs log concentration

| SMILES | IC50 [1, 3] | IC50 [1, 4] | IC50 [2, 3] | IC50 [2, 5] | IC50 [1, 6] | IC50 [1, 7] | IC50 [2, 6] | IC50 [2, 8] |
| --- | --- | --- | --- | --- | --- | --- | --- | --- |
| COc1cccc(-c2nc3c(Nc4ccc(-n5cnc(C)c5)cn4)cccn3c2C)c1 [Compound 68] | > 1000 nM | > 3020 nM | 18 nM | 18 nM |  |  |  |  |
| CCCc1c(-c2ccc(F)cc2)nc2c(Nc3ccc(-n4cnc(C)c4)c(OC)c3)cccn12 [Compound 24] | > 1000 nM | > 10000 nM | 24 nM | 20 nM |  |  |  |  |
| COc1ccc(-c2cn3cccc(Nc4ccc(-n5cnc(C)c5)c(OC)c4)c3n2)c(OC)c1 [Compound 37] |  |  |  |  | > 10000 nM | > 10000 nM | 190 nM | 174 nM |
| Cc1ncn(-c2ccc(Nc3cccn4cc(-c5cc(C(F)(F)F)ccc5C)nc34)cn2)n1 [Compound 84] |  | > 3020 nM |  | 115 nM |  |  |  |  |
| Cc1ncn(-c2ccc(Nc3cccn4cc(-c5ccc(F)cc5C)nc34)cc2F)n1 [Compound 91] |  |  |  |  |  | 18600 nM |  | 72 nM |
| Cc1ncn(-c2ccc(Nc3cccn4cc(-c5cc(C(F)(F)F)ccc5C)nc34)nc2)n1 [Compound 81] |  | > 10000 nM |  | 380 nM |  |  |  |  |
| COc1cc(Nc2cccn3cc(CN4CCOCC4)nc23)ccc1-n1cnc(C)c1 [Compound 56] |  |  |  |  | > 10000 nM | > 10000 nM | 601 nM | 204 nM |
| COc1cc(Nc2cccn3c(CO)c(-c4ccc(F)cc4)nc23)ccc1-n1cnc(C)c1 [Compound 101] |  |  |  |  |  | > 1000 nM |  | 13 nM |
| CCCCc1nc2c(Nc3ccc(-n4cnc(C)c4)c(OC)c3)cccn2c1CCC [Compound 11] | > 3000 nM | > 3020 nM | 39 nM | 35 nM |  |  |  |  |
| COc1cc(Nc2cc(C(F)(F)F)cn3cc(CO)nc23)ccc1-n1cnc(C)n1 [Compound 152] |  |  |  |  |  | > 3020 nM |  | 1780 nM |
| COc1cc(Nc2cccn3c(CNC=O)c(-c4cccc(F)c4)nc23)ccc1-n1cnc(C)c1 [Compound 100] |  | > 3020 nM |  | 11 nM |  |  |  |  |
| CCCCc1cn2cccc(Nc3ccc(-n4cnc(C)c4)c(OC)c3)c2n1 [Compound 51] | > 3000 nM | > 3020 nM | 39 nM | 38 nM |  |  |  |  |
| COc1cc(Nc2cccn3cc(C)nc23)ccc1-n1cnc(C)n1 [Compound 77] |  |  |  |  | > 10000 nM | > 10000 nM | 2690 nM | 4360 nM |

Continued, values first:

| IC50 [1, 3] | IC50 [1, 4] | IC50 [2, 3] | IC50 [2, 5] | IC50 [1, 6] | IC50 [1, 7] | IC50 [2, 6] | IC50 [2, 8] | SMILES |
| --- | --- | --- | --- | --- | --- | --- | --- | --- |
|  |  |  |  | > 10000 nM | > 10000 nM | 423 nM | 437 nM | COc1cc(Nc2cccn3c(-c4cccc(-c5ccccc5)c4)cnc23)ccc1-n1cnc(C)c1 [Compound 61] |
|  |  |  |  |  | > 3020 nM |  | 27 nM | COc1cc(Nc2cccn3c(Cl)c(CC4CCCCC4)nc23)ccc1-n1cnc(C)c1 [Compound 53] |
|  |  |  |  | > 10000 nM | > 10000 nM | 430 nM | 427 nM | COc1cc(Nc2cccn3cc(-c4cccnc4)nc23)ccc1-n1cnc(C)c1 [Compound 42] |
|  |  |  |  | > 3000 nM | > 3020 nM | 59 nM | 56 nM | COc1cc(Nc2cccn3cc(-c4cccc(F)c4)nc23)ccc1-n1cnc(C)c1 [Compound 19] |
|  |  |  |  | > 3000 nM | > 3020 nM | 60 nM | 52 nM | COc1cc(Nc2cccn3cc(-c4cccc(C(F)(F)F)c4)nc23)ccc1-n1cnc(C)c1 [Compound 48] |
| > 3000 nM | > 3020 nM | 52 nM | 50 nM |  |  |  |  | COc1cccc(-c2nc3c(Nc4cnc(-n5cnc(C)c5)nc4)cccn3c2C)c1 [Compound 46] |
|  |  |  |  |  | > 3020 nM |  | > 3020 nM | COc1cc(Nc2cccn3cc(-c4ccncc4)nc23)ccc1-n1cnc(C)c1 [Compound 43] |
|  |  |  |  |  | > 3020 nM |  | 468 nM | Cc1ncn(-c2ccc(Nc3cccn4c(C)c(-c5ccccc5Cl)nc34)c(F)c2)n1 [Compound 133] |
|  |  |  |  |  | > 3020 nM |  | 42 nM | COc1cc(Nc2cc(C(F)(F)F)cn3cc(COc4ccc(F)cc4)nc23)ccc1-n1cnc(C)n1 [Compound 147] |
|  |  |  |  | > 1000 nM | > 3020 nM | 58 nM | 51 nM | COc1cc(Nc2cccn3c(I)c(-c4ccc(F)cc4)nc23)ccc1-n1cnc(C)c1 [Compound 57] |
|  |  |  |  | > 3000 nM | > 3020 nM | 64 nM | 60 nM | COc1ccc(-c2cn3cccc(Nc4ccc(-n5cnc(C)c5)c(OC)c4)c3n2)cc1 [Compound 36] |
|  |  |  |  |  | > 3020 nM |  | 398 nM | Cc1ncn(-c2ccc(Nc3cccn4cc(-c5ccc(F)cc5C)nc34)cc2)n1 [Compound 90] |
|  |  |  |  | > 3000 nM | > 3020 nM | 57 nM | 41 nM | COc1cc(Nc2cccn3cc(-c4ccccc4Cl)nc23)ccc1-n1cnc(C)c1 [Compound 14] |
|  |  |  |  |  | > 3020 nM |  | 85 nM | COc1cc(Nc2cccn3cc(-c4ccc(F)cc4C)nc23)ccc1-n1cnc(C)n1 [Compound 89] |
|  |  |  |  | > 5000 nM | > 5010 nM | 232 nM | 200 nM | COc1cc(Nc2cccn3cc(-c4ccc(F)cc4)nc23)ccc1-n1ncnc1C [Compound 45] |
|  |  |  |  | > 10000 nM | > 10000 nM | 384 nM | 282 nM | COc1cc(Nc2cccn3cc(C(C)(C)C)nc23)ccc1-n1cnc(C)c1 [Compound 9] |
|  | > 3020 nM |  | 1290 nM |  |  |  |  | COc1cc(Nc2cccn3cc(CN4CCCCC4)nc23)ccc1-n1cnc(C)c1 [Compound 55] |
|  |  |  |  | > 3000 nM | > 3020 nM | 89 nM | 87 nM | COc1cc(Nc2cccn3c(-c4ccccc4)c(-c4ccccc4)nc23)ccc1-n1cnc(C)c1 [Compound 13] |
|  |  |  |  | > 3000 nM | > 3020 nM | 58 nM | 49 nM | COc1cc(Nc2cccn3cc(-c4cccc(Cl)c4)nc23)ccc1-n1cnc(C)c1 [Compound 16] |
